Data reported in article PMC6072017, “Reversible covalent direct thrombin inhibitors” (PLoS ONE, 2018).
Read-outs that look alike come from different tables or passages of the source.

What was measured:
Trypsin = test: Enzyme inhibition assay, chromogenic substrate S-2765; format: biochemical; settings: 10 min preincubation, 3 nM enzyme
Procedure: Final reaction volumes were 100 μL.
For FXIIa, the buffer also contained 50 mM imidazole. […] The buffer for FIXa (50 nM final concentration) was 50 mM Tris, 100 mM NaCl, 5 mM CaCl2, and 30% ethylene glycol.

[1] = system: thrombin generation in human platelet-poor plasma; test: Thrombin generation assay (TGA); format: biochemical; settings: 70% human platelet-poor plasma, 37°C
Procedure: The assay was performed with human platelet-poor plasma (70% final concentration) in buffer containing 20 mM HEPES (pH 7.4), 150 mM NaCl, and compound in DMSO (4% final concentration). The assay also contained phospholipids (approx. 3 μM) and Dade Innovin (1/5000 final dilution of stock). The reaction was triggered by the addition of a solution containing substrate (Z-GGR-AMC, 0.5 mM final concentration) and CaCl2 (15 mM final concentration). The reaction was then monitored kinetically by fluorescence (excitation 380 nm, emission 460 nm) at 37°C for 90 min.

[2] = system: clotting of human platelet-poor plasma; settings: 37°C
Procedure: (§1) Both PT and aPTT assays were performed as recommended by the vendor (Diagnostica Stago). Briefly, citrated normal pooled human platelet-poor plasma was mixed with test compound (2% DMSO) at 37°C. Subsequently, either the aPTT assay reagent or PT assay reagent was added and mixed thoroughly. CaCl2 was then added to trigger the clotting process. The time for clot formation was measured in seconds and the test compound concentration to double the clotting time (CT2x) was determined.

[3] = system: clotting of human platelet-poor plasma; test: Activated partial thromboplastin time (aPTT) clotting assay; format: biochemical; settings: 37°C
Procedure: as §1

Factor IXa = Factor IXa (Homo sapiens, UniProt P00740); test: Enzyme inhibition assay, substrate Spectrozyme
Chain of Factor IXa (P00740 227-461 limits assumed): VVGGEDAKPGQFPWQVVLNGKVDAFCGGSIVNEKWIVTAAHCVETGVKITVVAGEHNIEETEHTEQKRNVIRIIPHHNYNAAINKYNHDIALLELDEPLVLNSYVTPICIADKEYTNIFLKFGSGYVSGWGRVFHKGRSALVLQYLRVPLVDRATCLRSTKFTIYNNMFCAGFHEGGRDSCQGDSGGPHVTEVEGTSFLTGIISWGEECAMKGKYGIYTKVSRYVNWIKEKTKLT
Chain of Factor IXa (P00740 47-191 partner limits assumed): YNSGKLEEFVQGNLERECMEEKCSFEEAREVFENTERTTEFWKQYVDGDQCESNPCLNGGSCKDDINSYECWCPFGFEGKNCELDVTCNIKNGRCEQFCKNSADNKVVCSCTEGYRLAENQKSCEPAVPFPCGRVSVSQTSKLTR

Factor VIIa = Factor VIIa (Homo sapiens, UniProt P08709); test: Enzyme inhibition assay, chromogenic substrate S-2238
Chain of Factor VIIa (P08709 213-466 limits assumed): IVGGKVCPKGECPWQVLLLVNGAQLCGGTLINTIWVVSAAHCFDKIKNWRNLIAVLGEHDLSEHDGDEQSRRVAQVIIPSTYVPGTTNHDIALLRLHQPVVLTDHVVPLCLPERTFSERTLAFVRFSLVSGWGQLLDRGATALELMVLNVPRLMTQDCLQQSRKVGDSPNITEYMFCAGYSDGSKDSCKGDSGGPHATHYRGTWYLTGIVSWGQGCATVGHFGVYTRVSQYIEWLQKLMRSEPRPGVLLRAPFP
Chain of Factor VIIa (P08709 61-212 partner limits assumed): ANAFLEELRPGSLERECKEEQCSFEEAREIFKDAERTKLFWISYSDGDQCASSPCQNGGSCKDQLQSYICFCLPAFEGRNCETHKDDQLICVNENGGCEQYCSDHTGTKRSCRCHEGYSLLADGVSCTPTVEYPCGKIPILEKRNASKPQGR
Chain of Factor VIIa (P13726 33-295 partner): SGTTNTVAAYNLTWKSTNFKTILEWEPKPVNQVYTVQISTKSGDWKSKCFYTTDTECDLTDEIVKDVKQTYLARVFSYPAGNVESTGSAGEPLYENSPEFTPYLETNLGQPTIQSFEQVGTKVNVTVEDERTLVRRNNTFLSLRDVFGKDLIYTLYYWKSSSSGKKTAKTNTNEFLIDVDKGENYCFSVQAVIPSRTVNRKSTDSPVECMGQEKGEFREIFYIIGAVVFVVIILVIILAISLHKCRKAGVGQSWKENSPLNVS

Factor Xa [4] = molecular target: T1, Factor Xa (Homo sapiens, UniProt P00742); test: Enzyme inhibition assay, chromogenic substrate S-2765
T1 sequence (P00742 235-488 limits assumed): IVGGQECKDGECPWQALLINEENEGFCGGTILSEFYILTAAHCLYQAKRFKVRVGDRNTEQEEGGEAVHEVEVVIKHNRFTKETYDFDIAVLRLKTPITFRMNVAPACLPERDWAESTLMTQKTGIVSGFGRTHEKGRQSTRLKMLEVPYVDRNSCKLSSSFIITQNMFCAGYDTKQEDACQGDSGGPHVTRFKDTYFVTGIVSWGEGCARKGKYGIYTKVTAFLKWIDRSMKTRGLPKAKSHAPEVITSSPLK
T1 sequence (P00742 41-179 partner limits assumed): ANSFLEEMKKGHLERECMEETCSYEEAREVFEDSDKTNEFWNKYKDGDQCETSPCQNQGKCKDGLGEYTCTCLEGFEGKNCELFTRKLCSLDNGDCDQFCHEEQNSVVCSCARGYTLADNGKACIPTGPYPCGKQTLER

Factor XIa [5] = molecular target: T2, Factor XIa (Homo sapiens, UniProt P03951); test: Enzyme inhibition assay, chromogenic substrate S-2366
T2 sequence (P03951 388-625 limits assumed): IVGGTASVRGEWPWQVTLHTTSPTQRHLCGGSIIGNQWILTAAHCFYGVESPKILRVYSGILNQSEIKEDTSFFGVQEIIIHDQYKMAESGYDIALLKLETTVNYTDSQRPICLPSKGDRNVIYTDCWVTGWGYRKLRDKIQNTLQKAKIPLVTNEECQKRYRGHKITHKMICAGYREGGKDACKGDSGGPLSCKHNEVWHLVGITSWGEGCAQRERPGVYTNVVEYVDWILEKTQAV
T2 sequence (P03951 19-387 partner limits assumed): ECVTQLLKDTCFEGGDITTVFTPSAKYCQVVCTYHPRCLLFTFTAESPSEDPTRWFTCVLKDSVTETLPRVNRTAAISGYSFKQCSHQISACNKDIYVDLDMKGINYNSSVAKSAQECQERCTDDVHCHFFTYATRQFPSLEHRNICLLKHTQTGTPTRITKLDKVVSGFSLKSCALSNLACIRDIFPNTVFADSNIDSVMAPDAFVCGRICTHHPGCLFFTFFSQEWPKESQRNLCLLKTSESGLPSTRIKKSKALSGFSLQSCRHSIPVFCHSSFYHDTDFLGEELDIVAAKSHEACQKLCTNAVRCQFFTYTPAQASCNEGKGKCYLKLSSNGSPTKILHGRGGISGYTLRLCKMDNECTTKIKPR

Factor XIIa = molecular target: T3, Factor XIIa (Homo sapiens, UniProt P00748); test: Enzyme inhibition assay, chromogenic substrate S-2302
T3 sequence (P00748 373-615 limits assumed): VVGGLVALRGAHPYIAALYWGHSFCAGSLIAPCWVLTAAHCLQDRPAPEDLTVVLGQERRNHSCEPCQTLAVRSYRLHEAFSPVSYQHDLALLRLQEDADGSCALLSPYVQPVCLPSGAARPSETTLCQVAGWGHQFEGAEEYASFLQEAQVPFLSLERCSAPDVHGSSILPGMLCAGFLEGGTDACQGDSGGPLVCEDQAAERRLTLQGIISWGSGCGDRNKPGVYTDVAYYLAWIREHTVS
T3 sequence (P00748 20-372 partner limits assumed): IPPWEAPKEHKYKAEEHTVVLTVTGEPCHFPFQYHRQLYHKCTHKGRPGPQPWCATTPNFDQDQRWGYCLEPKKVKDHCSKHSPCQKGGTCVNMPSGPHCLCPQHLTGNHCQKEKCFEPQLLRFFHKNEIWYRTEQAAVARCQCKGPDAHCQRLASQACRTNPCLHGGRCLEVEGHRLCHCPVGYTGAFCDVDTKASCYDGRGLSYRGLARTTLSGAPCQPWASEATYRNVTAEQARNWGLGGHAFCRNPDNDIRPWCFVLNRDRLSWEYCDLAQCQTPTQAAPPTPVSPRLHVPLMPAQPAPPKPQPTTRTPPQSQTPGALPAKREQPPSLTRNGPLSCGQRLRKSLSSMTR

aPC = aPC (Homo sapiens, UniProt P04070); test: Enzyme inhibition assay, chromogenic substrate S-2366
Chain of aPC (P04070 212-450 limits assumed): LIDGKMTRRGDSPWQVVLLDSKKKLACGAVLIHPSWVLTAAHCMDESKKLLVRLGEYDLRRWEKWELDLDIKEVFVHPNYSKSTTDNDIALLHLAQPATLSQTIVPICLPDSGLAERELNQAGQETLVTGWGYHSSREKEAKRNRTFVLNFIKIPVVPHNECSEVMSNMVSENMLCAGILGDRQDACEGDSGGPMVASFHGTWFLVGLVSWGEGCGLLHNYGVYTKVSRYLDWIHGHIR
Chain of aPC (P04070 43-197 partner limits assumed): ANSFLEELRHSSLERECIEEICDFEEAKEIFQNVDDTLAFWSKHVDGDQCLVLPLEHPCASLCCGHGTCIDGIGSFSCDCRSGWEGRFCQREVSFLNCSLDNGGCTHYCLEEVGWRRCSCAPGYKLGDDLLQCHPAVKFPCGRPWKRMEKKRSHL

Plasmin [6] = molecular target: T4, Plasmin (Homo sapiens, UniProt P00747); test: Enzyme inhibition assay, chromogenic substrate S-2251
T4 sequence (P00747 581-810 limits assumed, species assumed): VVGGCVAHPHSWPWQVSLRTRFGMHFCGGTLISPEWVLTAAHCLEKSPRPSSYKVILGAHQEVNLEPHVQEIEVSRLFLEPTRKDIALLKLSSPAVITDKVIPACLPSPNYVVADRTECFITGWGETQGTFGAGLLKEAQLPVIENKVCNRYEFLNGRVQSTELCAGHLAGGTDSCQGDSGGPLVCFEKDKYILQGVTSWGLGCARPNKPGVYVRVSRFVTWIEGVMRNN
T4 sequence (P00747 97-580 partner limits assumed, species assumed): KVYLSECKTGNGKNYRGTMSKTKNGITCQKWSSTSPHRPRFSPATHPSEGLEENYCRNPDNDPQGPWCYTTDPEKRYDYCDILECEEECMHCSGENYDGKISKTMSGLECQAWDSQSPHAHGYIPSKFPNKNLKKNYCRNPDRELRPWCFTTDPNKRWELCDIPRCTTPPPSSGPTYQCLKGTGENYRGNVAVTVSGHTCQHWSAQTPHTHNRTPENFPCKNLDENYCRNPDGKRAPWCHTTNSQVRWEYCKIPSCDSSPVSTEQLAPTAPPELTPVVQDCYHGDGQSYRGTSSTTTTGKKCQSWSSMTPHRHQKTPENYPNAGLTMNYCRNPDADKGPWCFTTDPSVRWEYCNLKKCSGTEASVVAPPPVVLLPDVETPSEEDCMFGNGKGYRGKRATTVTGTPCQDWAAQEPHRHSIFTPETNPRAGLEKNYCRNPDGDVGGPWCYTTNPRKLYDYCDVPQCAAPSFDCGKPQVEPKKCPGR

Factor XIa [7] = molecular target: T2, Factor XIa; test: Progress curve kinetics experiments; format: biochemical
Procedure: (§3) The data for the initial time points, up to at least 65% reaction progress, were analyzed as described in Wakselman et al. [20].

Plasma stability assay = format: in vitro ADME; settings: 37°C, n = 2, read-out: Plasma stability t½
Procedure: The compound at 20 μM (2% final DMSO concentration) was incubated with CD-1 mouse (Innovative Research), SD rat (Innovative research), or human plasma (George King BioMed) at 37°C for up to three hours. Aliquots were taken out at different time points and quenched in acetonitrile containing diclofenac (internal standard). The samples were then centrifuged and the supernatant was analyzed by UHPLC using a Kinetex 2.6 μm C18 (Phenomenex) column and a Shimadzu Nexera UHPLC. Verapamil was used as a positive control.

[8] = Liver microsome (LM) stability assay; format: in vitro ADME; settings: liver microsomes, NADPH, n = 2, read-out: LM stability t½
Procedure: Compound at 1 μM (0.5% final DMSO concentration) was incubated with a 0.5 mg/mL CD-1 mouse (Sigma), SD rat (Life Technologies), or human liver microsome (Life Technologies) in the presence of 1 mM NADPH at 37°C for up to one hour. Aliquots were taken out at different time points and quenched in acetonitrile containing diclofenac (internal standard). […] Verapamil was used as a positive control, and warfarin was used as a negative control.

[9] = Pharmacokinetics (PK) in CD-1 mice; settings: male, CD-1, mouse, plasma, iv, 0.5 mg/kg
Procedure: The test compound was injected intravenously (i.v.) into CD-1 mice at 0.5 mg/kg in formulation containing 5% DMA (dimethyl acetamide) 15% Solutol HS15 and 80% water. Animals were euthanized at predefined time points by CO2 inhalation and blood was collected in K2-EDTA vacutainers by cardiac puncture. The vials were then centrifuged to collect plasma. […] LC-MS was performed using a Luna Omega 1.6 μm Polar C18 (Phenomenex) column, a Shimadzu Nexera UHPLC, and a Sciex QTrap 5500 mass spectrometer. The PK parameters were calculated by non-compartmental analysis using Phoenix WinNonlin (Certara).

Factor Xa [10] = molecular target: T1, Factor Xa; test: Progress curve kinetics experiments; format: biochemical; parameters: purchased Haemtech Biopharma Services
Procedure: as §3

Plasmin [11] = molecular target: T4, Plasmin; test: Progress curve kinetics experiments; format: biochemical; parameters: purchased Haemtech Biopharma Services
Procedure: The data for the initial time points, up to at least 65% reaction progress, were analyzed as described in Wakselman et al..
Thus, when fitting to Eq (3), the extracted values kobs for each well were plotted against the modified inhibitor concentration [I]′0=(1−α)[I]0. (6)
For the experiments presented in this paper, n = 2 and the mean and standard deviation are reported for each parameter.

[12] = Control sample in buffer in the absence of thrombin; settings: 50 mM Tris pH 7.4, 100 mM NaCl, 0.2% PEG 8000, up to overnight
Procedure: The reaction was then quenched with acetonitrile and centrifuged at 4°C, 1000x RCF, for 10 min to pellet the protein. […] Quantification of the compounds was performed by LC-MS using a Shimadzu Nexera X2 UPLC system coupled with a Sciex QTrap 5500. Chromatography was performed on a LunaOmega Polar C18 analytical column (1.6 μm, 50 x 2.1 mm). The mobile phases were 0.025% formic acid in water and 0.025% formic acid in acetonitrile.

WT human α-thrombin = molecular target: T5, WT human α-thrombin (Homo sapiens, UniProt P00734); test: Binding of a dansyl probe to thrombin (tryptophan fluorescence); settings: 1 μM compound, 80 nM thrombin, excitation 280 nm, emission 340 nm
T5 construct: made in house; host or cells: E. coli
Procedure: (§2) Compound 2 at 1 μM was incubated with WT human α-thrombin (80 nM) or the active site mutant protein S195A at room temperature for 10 min. Then, fluorescence measurements (excitation 280 nm, emission 340 nm) were recorded in kinetic mode.

thrombin mutant S195A = molecular target: T6, thrombin mutant S195A (Homo sapiens, UniProt P00734, S568A); test: as above; settings: 1 μM compound, excitation 280 nm, emission 340 nm
T6 construct: made in house; host or cells: E. coli
Procedure: as §2

thrombin = thrombin (Homo sapiens, UniProt P00734); test: Enzyme inhibition assay, chromogenic substrate S-2238
[13] = read-out: Cmax EC50 (peak height)
[14] = read-out: ETP EC50 (endogenous thrombin potential)

Row | IC50 (thrombin) [µM] | SMILES | EC50 [1, 13] [µM] | EC50 [1, 14] [µM] | CT2x in aPTT assay (concentration to double the clotting time) [3] [µM] | IC50 (Factor IXa) [µM] | IC50 (Factor VIIa) [µM] | IC50 (Factor Xa [4]) [µM] | IC50 (Factor XIa [5]) [µM] | IC50 (Factor XIIa) [µM] | IC50 (aPC) [µM] | IC50 (Plasmin [6]) [µM] | further results
1 | – | CC1CNc2c(cccc2S(=O)(=O)N[C@@H](CCCNC(=N)N)C(=O)N2CC[C@@H](C)C[C@@H]2C(=O)O)C1 (some centres unmarked) [Argatroban] | 0.27 ± 0.05 | 0.34 ± 0.11 | 0.27 ± 0.15 | > 50 | > 50 | > 50 | > 50 | > 50 | > 50 | > 50 | IC50 (Trypsin): > 50 µM; CT2x in PT assay (concentration to double the clotting time) [2]: 0.60 ± 0.14 µM
2 | – | COc1ccccc1C(=O)n1nc(C2CCNCC2)c(F)c1NCc1ccc(Cl)s1 [Compound 1] | – | – | > 100 | > 50 | 13.8 ± 2.8 | 8.3 ± 3.4 | 2.8 ± 0.2 | > 50 | > 50 | 0.7 ± 0.15 | Ki (Factor XIa [7]): 5.5 ± 4 µM; half-life at 20 μM (Plasma stability assay; CD-1 mouse plasma): 14 ± 1 min; half-life at 20 μM (Plasma stability assay; Human plasma): 89 ± 9 min; half-life at 20 μM (Plasma stability assay; SD rat plasma): 25 min; half-life at 1 μM ([8]; CD-1 mouse liver microsome 0.5 mg/mL): 20 ± 2 min; half-life at 1 μM ([8]; Human liver microsome 0.5 mg/mL): 110 min; half-life at 1 μM ([8]; SD rat liver microsome 0.5 mg/mL): 8 ± 1.6 min; AUC [9]: 88 ng·h/mL; C0 [9]: 260 ng/mL; Vd [9]: 30 L/kg; clearance [9]: 183 mL/min/kg; half-life [9]: 114 min; Ki (Factor Xa [10]): 94 ± 57 µM; Ki (Plasmin [11]): 0.8 ± 0.6 µM; stability in buffer in the absence of thrombin [12]: stable over the entire course of the experiment
3 | 0.08 | CN(C)c1cccc2c(S(=O)(=O)Nc3ccc(C(=O)n4nc(C5CCNCC5)c(F)c4NCc4ccc(Cl)s4)cc3)cccc12 [Compound 2] | – | – | – | – | – | – | – | – | – | – | change of tryptophan fluorescence on incubation with thrombin WT (WT human α-thrombin): time-dependent change in the fluorescence intensity at 340 nm; change of tryptophan fluorescence on addition to thrombin S195A (thrombin mutant S195A): failed to produce any change in fluorescence
4 | > 100 | Fc1c(C2CCNCC2)n[nH]c1NCc1ccc(Cl)s1 [Compound 3] | > 100 | > 100 | – | – | – | – | – | – | – | – | Tmax EC2x (concentration necessary to shift the time to peak 2-fold) [1]: > 100 µM
5 | – | [H]/N=C(/N)c1ccc(NCc2nc3cc(C(=O)N(CCC(=O)O)c4ccccn4)ccc3n2C)cc1 [Dabigatran] | 0.24 ± 0.08 | 0.21 ± 0.04 | – | > 50 | 40.7 ± 13.3 | – | 4.2 ± 1.5 | > 50 | 41.3 ± 7.6 | 8.4 ± 2.6 | –
